Measured values as given in patent US20250154154A1 (Relay Binney Street, 2nd Floor, priority 2020, published 2025).

How the values were obtained:
[1] = target: SRC (Homo sapiens, UniProt P12931); assay: SRC Biochemical Assay Protocol (microfluidic mobility shift assay, FLPeptide4 substrate)
Protocol: SRC Biochemical Assay Protocol
Src biochemical kinase activity was measured using a surrogate fluorescent peptide substrate [FLPeptide4; 5-FAM-EGIYGVLFKKK-CONH2 (PerkinElmer Cat. No. 760348)] with a microfluidic mobility shift assay. Reactions were performed in 384-well flat bottom polystyrene microplates (Corning Cat. No. 3570) at a final volume of 20 μL in 50 mM HEPES pH 7.4, 1 mM EGTA, 10 mM MgCl2, 0.01% Brij-35, 2 mM DTT, 0.05% BSA, 1% DMSO. Inhibition experiments were performed with compounds of the invention varying from 0.0017-100 μM with 0.26 nM SRC, 1.5 μM FLPeptide4, and 50 μM ATP. Specifically, 15 μl 1.3× mixtures of SRC+FLPeptide4+compounds were preincubated for 30 minutes at room temperature followed by addition of 5 μL 4×ATP. Reactions were carried out for 90 minutes then quenched with 40 μl 500 mM EDTA. Phosphorylated peptide product was measured with a mobility shift assay using a LabChip® EZ Reader system (PerkinElmer Cat. No. 122919). Inhibition ratios were calculated relative to neutral controls and IC50 values were obtained from dose response data fitted to a 4-parameter logistic model.

[2] = tested on: RBE cells; assay: Cell Viability Protocol (CellTiterGlo), RBE cells; assay type: cell-based; conditions: RBE or SNU-1079 cells, 72 or 120 hour, cell line and time not given
Protocol: RBE or SNU-1079 cells were cultured in T-75 or T-175 flasks at 37° C., 5% CO2, 95% relative humidity in RPMI 1640 medium with 10% FBS and 1% Penicillin/Streptomycin (media) and detached with 0.25% trypsin/EDTA at 80-90% confluency. Cells were then seeded in 40 μL media per well in 384-well flat-bottom polystyrene microplates (Corning Cat. No. 3570) at a seeding density of 1200 cells/well and incubated for 24 hours at 37° C. with 5% CO2, 95% relative humidity. On the next day, test compounds were prepared in 10 mM DMSO stock solution and diluted to the indicated concentrations in a 384-well compound source plate. DMSO was employed as a vehicle control. Compounds (40 nL) were transferred to 384-well cell culture plate(s) using the liquid handler Echo550. Plates were incubated at 37° C. with 5% CO2 for 72 hour or 120 hour (as indicated). CellTiterGlo reagent was warmed to 37° C. and added into each well (40 μL per well). Plates were incubated at room temperature for 30 min followed by reading on the EnSpire or EnVision plate reader. Relative viability (% remaining activity) was calculated relative to DMSO control and IC50 values were obtained from dose-response data fitted to a 4-parameter curve.

Compound	IC50 [1] [nM]	IC50 [2] [nM]
C=CC(=O)N1CCC(C#Cc2c(-c3ccc(Oc4ccccc4)cn3)c3c(N)ncnc3n2C(C)C)CC1 [Example I-55]	10 to 1000	10 to 1000
C=CC(=O)N1CCC(O)(C#Cc2c(-c3ccc(Oc4ccccc4)cc3)c3c(N)ncnc3n2C2CCOC2)CC1 (stereo not shown) [Example I-70]	≤ 10	≤ 10
CC(C)n1c(C#CC2CCC(C(=O)O)CC2)c(-c2ccc(Oc3ccccc3)cc2)c2c(N)ncnc21 (stereo not shown) [II-138, 4-((4-amino-7-isopropyl-5-(4-phenoxyphenyl)-7H-pyrrolo[2,3-d]pyrimidin-6-yl)ethynyl) cyclohexanecarboxylic acid]	≤ 10	10 to 1000
CC(C)n1c(C#CC2CCN(C(CO)c3ccccc3)CC2)c(-c2ccc(Oc3ccccc3)cc2)c2c(N)ncnc21 (stereo not shown) [II-143, 2-(4-((4-amino-7-isopropyl-5-(4-phenoxyphenyl)-7H-pyrrolo[2,3-d]pyrimidin-6-yl)ethynyl)piperidin-1-yl)-2-phenylethanol]	10 to 1000	1000 to 10000
C=CC(=O)NC1CC(C#Cc2c(-c3ccc(Oc4ccccc4)cc3)c3c(N)ncnc3n2C2CCOC2)C1 (stereo not shown) [Example I-71]	10 to 1000	≤ 10
COCCN(C)C/C=C/C(=O)N1C[C@@H]2[C@@H](C#Cc3c(-c4ccc(Oc5cccc(C)n5)cc4OC)c4c(N)ncnc4n3C)[C@@H]2C1 [II-235, (E)-1-((1R,5S,6s)-6-((4-amino-5-(2-methoxy-4-((6-methylpyridin-2-yl)oxy)phenyl)-7-methyl-7H-pyrrolo[2,3-d]pyrimidin-6-yl)ethynyl)-3-azabicyclo[3.1.0]hexan-3-yl)-4-((2-methoxyethyl) (methyl)amino)but-2-en-1-one]	10 to 1000	1000 to 10000
C=CC(=O)N1CCC(C#Cc2c(-c3ccc(Oc4ccccc4)cc3)c3c(N)ncnc3n2C2CCOCC2)CC1 [Example I-41, 1-(4-((4-amino-5-(4-phenoxyphenyl)-7-(tetrahydro-2H-pyran-4-yl)-7H-pyrrolo[2,3-d]pyrimidin-6-yl)ethynyl)piperidin-1-yl)prop-2-en-1-one]	10 to 1000	10 to 1000
C=CC(=O)N1CCC(C#Cc2c(-c3ccc(Oc4ccccc4)cc3)c3c(N)ncnc3n2C(C)c2noc(COC)n2)CC1 (stereo not shown) [Example I-58]	10 to 1000	10 to 1000
COCCN(C)C/C=C/C(=O)N1C[C@@H]2[C@@H](C#Cc3c(-c4ccc(Oc5ccccn5)c(OC)c4)c4c(N)ncnc4n3C)[C@@H]2C1 [II-231, (E)-1-((1R,5S,6s)-6-((4-amino-5-(3-methoxy-4-(pyridin-2-yloxy)phenyl)-7-methyl-7H-pyrrolo[2,3-d]pyrimidin-6-yl)ethynyl)-3-azabicyclo[3.1.0]hexan-3-yl)-4-((2-methoxyethyl) (methyl)amino) but-2-en-1-one]	10 to 1000	10 to 1000
C=CC(=O)N1CCC(C#Cc2c(-c3cnc(Oc4ccccc4)cn3)c3c(N)ncnc3n2C(C)C)CC1 [Example I-65]	10 to 1000	10 to 1000
Cn1c(C#C[C@@H]2[C@H]3CN(C(=O)/C=C/CN4CCC(F)C4)C[C@@H]23)c(-c2ccc(Oc3ccccc3)cc2)c2c(N)ncnc21 (stereo partly drawn) [II-225, (E)-1-((1R,5S,6s)-6-((4-amino-7-methyl-5-(4-phenoxyphenyl)-7H-pyrrolo[2,3-d]pyrimidin-6-yl)ethynyl)-3-azabicyclo[3.1.0]hexan-3-yl)-4-(3-fluoropyrrolidin-1-yl)but-2-en-1-one]	10 to 1000	10 to 1000
CC(C)n1c(C#CC2CCN(CCO)CC2)c(-c2ccc(Oc3ccccc3)cc2)c2c(N)ncnc21 [II-147, 2-(4-((4-amino-7-isopropyl-5-(4-phenoxyphenyl)-7H-pyrrolo[2,3-d]pyrimidin-6-yl)ethynyl)piperidin-1-yl)ethanol]	≤ 10	10 to 1000
C=CC(=O)N1CCC(C#Cc2c(-c3ccc(Oc4ccccc4)cc3)c3c(N)ncnc3n2C2CC(O)C2)CC1 (stereo not shown) [Example I-69]	10 to 1000	10 to 1000
CC(c1ccccc1)N1CCC(C#Cc2c(-c3ccc(Oc4ccccc4)cc3)c3c(N)ncnc3n2C(C)C)CC1 (stereo not shown) [II-144, 7-isopropyl-5-(4-phenoxyphenyl)-6-((1-(1-phenylethyl)piperidin-4-yl)ethynyl)-7H-pyrrolo[2,3-d]pyrimidin-4-amine]	10 to 1000	1000 to 10000
C=CC(=O)N1CCC(C#Cc2c(-c3ccc(Oc4ccccc4)cc3)c3c(N)ncnc3n2C(C)C)(OC)CC1 [Example I-35]	10 to 1000	10 to 1000
CC(C)N1CCC(C#Cc2c(-c3ccc(Oc4ccccc4)cc3)c3c(N)ncnc3n2C(C)C)CC1 [II-142, 7-isopropyl-6-((1-isopropylpiperidin-4-yl)ethynyl)-5-(4-phenoxyphenyl)-7H-pyrrolo[2,3-d]pyrimidin-4-amine]	≤ 10	10 to 1000
COc1cc(-c2c(C#C[C@@H]3[C@H]4CN(C(=O)/C=C/CN(C)C)C[C@@H]34)n(C)c3ncnc(N)c23)ccc1Oc1ccccn1 [II-233, (E)-1-((1R,5S,6s)-6-((4-amino-5-(3-methoxy-4-(pyridin-2-yloxy)phenyl)-7-methyl-7H-pyrrolo[2,3-d]pyrimidin-6-yl)ethynyl)-3-azabicyclo[3.1.0]hexan-3-yl)-4-(dimethylamino) but-2-en-1-one]	10 to 1000	10 to 1000
C=CC(=O)N1CCC(N2CC(C#Cc3c(-c4ccc(Oc5ccccn5)cc4)c4c(N)ncnc4n3C)C2)C[C@H]1CO (stereo partly drawn) [II-244, 1-((2S)-4-(3-((4-amino-7-methyl-5-(4-(pyridin-2-yloxy)phenyl)-7H-pyrrolo[2,3-d]pyrimidin-6-yl)ethynyl)azetidin-1-yl)-2-(hydroxymethyl)piperidin-1-yl)prop-2-en-1-one]	10 to 1000	10 to 1000
C=CC(=O)N1CCC(C#Cc2c(-c3ccc(Oc4ccccc4F)cc3)c3c(N)ncnc3n2C2CCOC2)CC1 (stereo not shown) [Example I-62]	10 to 1000	10 to 1000
C=CC(=O)N1CCC(C#Cc2cn3ncnc(N)c3c2-c2ccc(Oc3ccccc3)cc2)CC1 [Example I-64]	10 to 1000	1000 to 10000
CC(C)n1c(C#CC2CCN(C(=O)CCl)CC2)c(-c2ccc(Oc3ccccc3)cc2)c2c(N)ncnc21 [Example I-29]	10 to 1000	10 to 1000
1-(4-(3-((4-amino- 7-isopropyl-5-(3- methoxy-4-(6- methylpyridin-2- yloxy)phenyl)-7H- pyrrolo[2,3- d]pyrimidin-6- yl)ethynyl)azetidin- 1-yl)piperidin-1- yl)prop-2-en-1-one [II-306]	10 to 1000	–
C=CS(=O)(=O)N1CC(C#Cc2c(-c3ccc(Oc4ccccc4)cc3)c3c(N)ncnc3n2C(C)C)C1 [Example I-17]	≤ 10	–

Second part, led by results:

IC50 [1] [nM]	Compound	IC50 [2] [nM]
1000 to 10000	C=CC(=O)N1C[C@@H]2[C@@H](C#Cc3c(Br)c4c(N)ncnc4n3C(C)C)[C@@H]2C1 [III-5]	1000 to 10000
≤ 10	C=CC(=O)N1CCC(O)(C#Cc2c(-c3ccc(Oc4ccccc4)cc3)c3c(N)ncnc3n2C)C1 (stereo not shown) [III-13]	–
1000 to 10000	C=CC(=O)NCC#Cc1c(-c2ccc(Oc3ncccn3)c(OC)c2)c2c(N)ncnc2n1C [III-94]	–
10 to 1000	C=CC(=O)N1CCC(O)(C#Cc2c(-c3ccc(Oc4ccccc4)c(Cl)c3)c3c(N)ncnc3n2C)CC1 [III-59]	–
10 to 1000	CN(C)C/C=C/C(=O)N1CCC(C#Cc2c(-c3ccc(Oc4ccccc4)cc3)c3c(N)ncnc3n2C2CCOC2)C1 (stereo not shown) [III-18]	–
10 to 1000	C=CC(=O)N1CCC(C#Cc2c(-c3ccc(Oc4ccccc4)cc3)c3c(N)ncnc3n2C)C1 (stereo not shown) [III-11]	–
10 to 1000	C=CC(=O)N1CCC(C#Cc2c(-c3ccc(Oc4ccccc4)cc3)c3c(N)ncnc3n2CCCN(C)C)C1 (stereo not shown) [III-15]	–
≤ 10	C=CC(=O)N1C[C@@H]2[C@@H](C#Cc3c(-c4ccc(Oc5ccccc5)c5c4OCO5)c4c(N)ncnc4n3C)[C@@H]2C1 [III-88]	–
10 to 1000	C=CC(=O)N1CCC(N2CC(C#Cc3c(-c4ccc(Oc5nnc(C)o5)c(OC)c4)c4c(N)ncnc4n3C)C2)CC1 [III-89]	–
10 to 1000	C=CC(=O)N1CC[C@@H](N2CC(C#Cc3c(-c4ccc(Oc5ccccc5)cc4)c4c(N)ncnc4n3C)C2)[C@H](C)C1 [III-66]	–
1000 to 10000	C=CC(=O)N1CCC(N2CC(N)(C#Cc3c(-c4ccc(Oc5cccc(C)n5)c(OC)c4)c4c(N)ncnc4n3C)C2)CC1 [III-93]	–
10 to 1000	C=CC(=O)N1CCC(C#Cc2c(-c3ccc(Oc4ccccc4)cc3)c3c(N)ncnc3n2C2CCOC2)C1 (stereo not shown) [III-21]	–
10 to 1000	C=CC(=O)N1CCC(N2CC(C#Cc3c(-c4ccc(Oc5cccc(C)n5)c(OC)c4)c4c(N)ncnc4n3C3CCOC3)C2)CC1 (stereo not shown) [III-91]	–
